A value given as a limit tells only on which side of the number the result lay.

The subject of assay [1] is multiple myeloma cell line MM.1S. Put plainly: MTT proliferation assay, MM.1S cells. The assay is classed as cell-based. Conditions: Homo sapiens, MM1.S, 72 h after drug administration. The text has this: (§1) Cell lines for test: acute leukemia cell line RS4; 11 and multiple myeloma cell line MM.1S
(§2) Test method: MTT (thiazole blue) method, which was also called MTT colorimetry assay, was a method used to detect cell survival and growth. The principle of the assay was that the succinate dehydrogenase in mitochondria of living cells could reduce the exogenous MTT to water-insoluble blue-purple crystal formazan and deposit it in the cells, while dead cells have no such function. Dimethyl sulfoxide (DMSO) could dissolve formazan in cells, and its light absorption value was measured at 550 nm wavelength by enzyme-linked immunoassay, which could indirectly reflect the number of living cells. Within a certain range of cell numbers, the amount of MTT crystal formation is proportional to the number of cells. This method has been widely used in the activity detection of some biologically active factors, large-scale anti-tumor drug screening, cytotoxicity test, and tumor radiosensitivity determination.
(§3) The concentration gradient of the compound was as follows: 0-25.6 pM-128 pM-640 pM-3.2 nm-16 nM-80 nM-400 nM-2 μM-10 μM; (n=3)
(§4) 72 h after drug administration, 20 μl per well of MTT working solution (5 mg/ml) was added, and incubated at 37° C. for 4 h, centrifuged in plate centrifuge at 1000 rpm/min for 5 min. 180 μl of medium was aspirated and 150 μl DMSO was added in RS4; 11 groups; 200 μl of medium was aspirated and 150 μl DMSO was added in MM.1S group; the mixture was shaken and mixed on microwell shaker, and the bottom of the plate was wiped, and the optical density (OD) was measured at 550 nm by microplate reader. The IC50 of the half inhibitory concentration was calculated by LOGIT method.
For orientation: Tetrazolium dyes change colour on reduction, which living cells bring about.

In assay [2] the test system is acute leukemia cell line RS4; 11. Put plainly: MTT proliferation assay, RS4;11 cells. The format is cell-based. Conditions: Homo sapiens, 72 h after drug administration.
Source text: as §1, §2, §3, §4

Usually IC50 stands for the concentration that inhibits the measured activity by half. Regarding `Cc1sc2c(c1C)C(c1ccc(Cl)cc1)=N[C@@H](CC(=O)Nc1ccc(OCCOCCOCCOCCNc3cccc4c3C(=O)N(C3CCC(=O)NC3=O)C4=O)cc1)c1nnc(C)n1-2` (some centres unmarked) [ARV-825, reference compound], the IC50 in assay [1] and in assay [2] was 20 to 100 nM throughout.

For the compound `Cc1sc2c(c1C)C(c1ccc(Cl)cc1)=N[C@@H](CC(=O)NN1CCN(C(=O)CCC(=O)Nc3cccc4c3CN(C3CCC(=O)NC3=O)C4=O)CC1)c1nnc(C)n1-2` (stereo partly drawn) [Example 1, 4-(4-(2-((S)-4-(4-chlorophenyl)-2,3,9-trimethyl-6H-thieno[3,2-f][1,2,4]triazolo[4,3-a][1,4]diaza-6-yl)acetamido)piperazin-1-yl)-N-(2-(2,6-dioxpiperazin-3-yl)-1-oxoisoindolin-4-yl)-4-oxobutanamide], the concentration for half-maximal inhibition (IC50) in assay [1] and in assay [2] was less than 20 nM in each case.

As to `Cc1sc2c(c1C)C(c1ccc(Cl)cc1)=N[C@@H](CC(=O)NN1CCN(C(=O)CNc3cccc4c3C(=O)N(C3CCC(=O)NC3=O)C4=O)CC1)c1nnc(C)n1-2` (some centres unmarked) [Example 4], the IC50 in assay [1] and in assay [2] was less than 20 nM in each case.

Consider `Cc1sc2c(c1C)C(c1ccc(Cl)cc1)=N[C@@H](CC(=O)NN1CCN(C(=O)CCNc3cccc4c3C(=O)N(C3CCC(=O)NC3=O)C4=O)CC1)c1nnc(C)n1-2` (some centres unmarked) [Example 5], for which the IC50 in assay [1] and in assay [2] was less than 20 nM each time.

Turning to `Cc1sc2c(c1C)C(c1ccc(Cl)cc1)=N[C@@H](CC(=O)NN1CCN(C(=O)CCOCCOCCNc3cccc4c3C(=O)N(C3CCC(=O)NC3=O)C4=O)CC1)c1nnc(C)n1-2` (some centres unmarked) [Example 8], the IC50 in assay [1] was less than 20 nM; in assay [2], 20 to 100 nM.

Take `Cc1sc2c(c1C)C(c1ccc(Cl)cc1)=N[C@@H](CC(=O)NN1CCN(C(=O)CCOCCOCCOCCNc3cccc4c3C(=O)N(C3CCC(=O)NC3=O)C4=O)CC1)c1nnc(C)n1-2` (some centres unmarked) [Example 9]: the half-maximal inhibitory concentration (IC50) is 20 to 100 nM in assay [1] and less than 20 nM in assay [2].

Turning to `Cc1sc2c(c1C)C(c1ccc(Cl)cc1)=N[C@@H](CC(=O)NN1CCN(C(=O)CNc3cccc4c3CN(C3CCC(=O)NC3=O)C4=O)CC1)c1nnc(C)n1-2` (some centres unmarked) [Example 11], the IC50 in assay [1] and in assay [2] was less than 20 nM each time.

Turning to `Cc1sc2c(c1C)C(c1ccc(Cl)cc1)=N[C@@H](CC(=O)NN1CCN(C(=O)CCNc3cccc4c3CN(C3CCC(=O)NC3=O)C4=O)CC1)c1nnc(C)n1-2` (some centres unmarked) [Example 12], the IC50 in assay [1] and in assay [2] was less than 20 nM throughout.

Take `Cc1sc2c(c1C)C(c1ccc(Cl)cc1)=N[C@@H](CC(=O)NN1CCN(C(=O)COc3cccc4c3C(=O)N(C3CCC(=O)NC3=O)C4=O)CC1)c1nnc(C)n1-2` (some centres unmarked) [Example 15]: the IC50 in assay [1] and in assay [2] was less than 20 nM in each case.

Consider `Cc1sc2c(c1C)C(c1ccc(Cl)cc1)=N[C@@H](CC(=O)N1CCN(NC(=O)CCC(=O)Nc3cccc4c3CN(C3CCC(=O)NC3=O)C4=O)CC1)c1nnc(C)n1-2` (some centres unmarked) [Example 16], for which the IC50 in assay [1] and in assay [2] was less than 20 nM each time.

For `Cc1sc2c(c1C)C(c1ccc(Cl)cc1)=N[C@@H](CC(=O)N1CCN(NC(=O)CNc3cccc4c3C(=O)N(C3CCC(=O)NC3=O)C4=O)CC1)c1nnc(C)n1-2` (some centres unmarked) [Example 19], the concentration for half-maximal inhibition (IC50) in assay [1] and in assay [2] was less than 20 nM in each case.

For the compound `Cc1sc2c(c1C)C(c1ccc(Cl)cc1)=N[C@@H](CC(=O)N1CCN(NC(=O)CCNc3cccc4c3C(=O)N(C3CCC(=O)NC3=O)C4=O)CC1)c1nnc(C)n1-2` (some centres unmarked) [Example 20], the IC50 in assay [1] and in assay [2] was less than 20 nM each time.

`Cc1sc2c(c1C)C(c1ccc(Cl)cc1)=N[C@@H](CC(=O)N1CCN(NC(=O)CNc3cccc4c3CN(C3CCC(=O)NC3=O)C4=O)CC1)c1nnc(C)n1-2` (some centres unmarked) [Example 26]: the IC50 in assay [1] and in assay [2] was 20 to 100 nM in each case.

Turning to `Cc1sc2c(c1C)C(c1ccc(Cl)cc1)=N[C@@H](CC(=O)NNC(=O)CCC(=O)Nc1cccc3c1CN(C1CCC(=O)NC1=O)C3=O)c1nnc(C)n1-2` (some centres unmarked) [Example 31], the IC50 in assay [1] and in assay [2] was 20 to 100 nM each time.

On to `Cc1sc2c(c1C)C(c1ccc(Cl)cc1)=N[C@@H](CC(=O)OC(C)(C)C)c1nnc(C)n1-2` [JQ1, tert-butyl(S)-2-(4-(4-chlorophenyl)-2,3,9-trimethyl-6H-thieno[3,2-f][1,2,4]triazolo[4,3-a][1,4]diazepine-6-yl)acetate, reference compound], for which the IC50 in assay [1] and in assay [2] was not below 100 nM in each case.

Regarding `Cc1sc2c(c1C)C(c1ccc(Cl)cc1)=N[C@@H](CC(=O)NCCCCNC(=O)COc1cccc3c1C(=O)N(C1CCC(=O)NC1=O)C3=O)c1nnc(C)n1-2` (some centres unmarked) [dBET1, reference compound], the IC50 in assay [1] and in assay [2] was not below 100 nM each time.
